Results reported in US10329309B2, “3-(3H-imidazo[4,5-B]pyridin-2-yl)-1H-pyrazolo[4,3-B]pyridines and therapeutic uses thereof” (Samumed, LLC, priority 2015, dated 2019).

Experiments:
[1] = tested on: primary human mesenchymal stem cells (hMSCs); assay: Induction of chondrogenesis in primary human mesenchymal stem cells (nodule imaging, Rhodamine B/Nile Red); assay type: cell-based; settings: hMSC chondrogenesis; for Emax: TGF-β3 as positive control, read-out: Max. Activity as % TGF-β3 activity; for EC50: concentration required to induce 50% levels of chondrogenesis vs TGF-β3, read-out: Conc (nM) of 50% TGF-β3 activity
How it was run: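 hMSCs (passage 3–6) in incomplete chondrogenic induction medium were dosed at 2700–10 nM (96-well, 6-point) or 5000–2.2 nM (384-well, 8-point), 0.03% DMSO final, for 6 days at 37° C. Fixed nodules stained with Rhodamine B/Nile Red were imaged; nodule area normalized to DMSO wells gave EC50, maximum activity and dose at maximum, with TGF-β3 (10 ng/mL) as positive control.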

[2] = tested on: IL-6 (THP-1 cells); assay: Inhibition of IL-6 in LPS-stimulated THP-1 monocytes (HTRF); assay type: cell-based; settings: Homo sapiens; for EC50: LPS 500 ng/mL, IL-6 by HTRF; for inhibition at 10 µM: LPS stimulated, IL-6, at 10 μM, read-out: percent inhibition at 10 μM (given for EC50 of >10 μM)
How it was run: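 THP-1 cells, serum-starved in 1% FBS for 24 h, were pre-incubated 2 h with compound (10-point, 1:3 from 10 μM, 0.1% DMSO), then stimulated with 500 ng/mL LPS for 22 h at 37 °C. IL-6 was quantified by HTRF 665/620 ratio. EC50 was fitted from DMSO-normalized data; above 10 μM, % inhibition at 10 μM is given.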

| SMILES | EC50 [2] [nM] | EC50 [1] [nM] | Emax [1] [%] | inhibition at 10 µM [2] [%] |
| --- | --- | --- | --- | --- |
| CCCCC(=O)Nc1cncc(-c2ccc3[nH]nc(-c4nc5c(-c6ccoc6)ccnc5[nH]4)c3n2)c1 [Compound 327, N-(5-(3-(7-(furan-3-yl)-3H-imidazo[4,5-b]pyridin-2-yl)-1H-pyrazolo[4,3-b]pyridin-5-yl)pyridin-3-yl)pentanamide] | > 10000 | 10 | 83 | 42.4 |
| CC(C)Nc1cncc(-c2ccc3[nH]nc(-c4nc5c(-c6cc(F)cc(NCCN(C)C)c6)ccnc5[nH]4)c3n2)c1 [Compound 460, N^1-(3-fluoro-5-(2-(5-(5-(isopropylamino)pyridin-3-yl)-1H-pyrazolo[4,3-b]pyridin-3-yl)-3H-imidazo[4,5-b]pyridin-7-yl)phenyl)-N^2,N^2-dimethylethane-1,2-diamine] | 1800 | 30 | 63 | – |
| Cc1ccncc1-c1ccc2[nH]nc(-c3nc4c(-c5cc(F)cc(CNS(C)(=O)=O)c5)ccnc4[nH]3)c2n1 [Compound 481, N-(3-fluoro-5-(2-(5-(4-methylpyridin-3-yl)-1H-pyrazolo[4,3-b]pyridin-3-yl)-3H-imidazo[4,5-b]pyridin-7-yl)benzyl)methanesulfonamide] | 1030 | – | 47 | – |
| Fc1cccc(-c2ccnc3[nH]c(-c4n[nH]c5ccc(C6=CCNCC6)nc45)nc23)c1 [Compound 506, 3-(7-(3-fluorophenyl)-3H-imidazo[4,5-b]pyridin-2-yl)-5-(1,2,3,6-tetrahydropyridin-4-yl)-1H-pyrazolo[4,3-b]pyridine] | > 10000 | – | 47 | 27.9 |
| Cc1ncc(-c2ccc3[nH]nc(-c4nc5c(-c6cccc(F)c6)ccnc5[nH]4)c3n2)n1C [Compound 509, 5-(1,2-dimethyl-1H-imidazol-5-yl)-3-(7-(3-fluorophenyl)-3H-imidazo[4,5-b]pyridin-2-yl)-1H-pyrazolo[4,3-b]pyridine] | > 10000 | 10 | 97 | 17.5 |
| NC1CN(c2cncc(-c3ccc4[nH]nc(-c5nc6c(-c7cccc(F)c7)ccnc6[nH]5)c4n3)n2)C1 [Compound 510, 1-(6-(3-(7-(3-fluorophenyl)-3H-imidazo[4,5-b]pyridin-2-yl)-1H-pyrazolo[4,3-b]pyridin-5-yl)pyrazin-2-yl)azetidin-3-amine] | 23 | – | 46 | – |
| CN(C)CCOc1cncc(-c2ccc3[nH]nc(-c4nc5c(-c6cccc(F)c6)ccnc5[nH]4)c3n2)c1 [Compound 515, 2-((5-(3-(7-(3-fluorophenyl)-3H-imidazo[4,5-b]pyridin-2-yl)-1H-pyrazolo[4,3-b]pyridin-5-yl)pyridin-3-yl)oxy)-N,N-dimethylethan-1-amine] | 5540 | – | 45 | – |
| Fc1cccc(-c2ccnc3[nH]c(-c4n[nH]c5ccc(-c6cnccn6)nc45)nc23)c1 [Compound 520, 3-(7-(3-fluorophenyl)-3H-imidazo[4,5-b]pyridin-2-yl)-5-(pyrazin-2-yl)-1H-pyrazolo[4,3-b]pyridine] | > 10000 | 2 | 63 | 19.5 |
| CN(C)CC(=O)Nc1cncc(-c2ccc3[nH]nc(-c4nc5c(-c6cccc(F)c6)ccnc5[nH]4)c3n2)c1 [Compound 969, 2-(dimethylamino)-N-(5-(3-(7-(3-fluorophenyl)-3H-imidazo[4,5-b]pyridin-2-yl)-1H-pyrazolo[4,3-b]pyridin-5-yl)pyridin-3-yl)acetamide] | > 10000 | 7 | 72 | 26.3 |
| COc1cccc(-c2ccnc3[nH]c(-c4n[nH]c5ccc(-c6cncc(NC(=O)Cc7ccccc7)c6)nc45)nc23)c1 [Compound 1000, N-(5-(3-(7-(3-methoxyphenyl)-3H-imidazo[4,5-b]pyridin-2-yl)-1H-pyrazolo[4,3-b]pyridin-5-yl)pyridin-3-yl)-2-phenylacetamide] | > 10000 | – | 46 | 12.3 |

Continued, in another order:

| EC50 [2] [nM] | EC50 [1] [nM] | SMILES | Emax [1] [%] | inhibition at 10 µM [2] [%] |
| --- | --- | --- | --- | --- |
| > 10000 | – | CCNCc1cncc(-c2ccc3[nH]nc(-c4nc5c(-c6ccoc6)ccnc5[nH]4)c3n2)c1 [Compound 314, N-((5-(3-(7-(furan-3-yl)-3H-imidazo[4,5-b]pyridin-2-yl)-1H-pyrazolo[4,3-b]pyridin-5-yl)pyridin-3-yl)methyl)ethanamine] | 32 | 23.9 |
| 456 | 100 | CC(C)Nc1cncc(-c2ccc3[nH]nc(-c4nc5c(-c6ccoc6)ccnc5[nH]4)c3n2)c1 [Compound 320, 5-(3-(7-(furan-3-yl)-3H-imidazo[4,5-b]pyridin-2-yl)-1H-pyrazolo[4,3-b]pyridin-5-yl)-N-isopropylpyridin-3-amine] | 64 | – |
| 4780 | 30 | CN(C)Cc1cncc(-c2ccc3[nH]nc(-c4nc5c(-c6cccs6)ccnc5[nH]4)c3n2)c1 [Compound 349, N,N-dimethyl-1-(5-(3-(7-(thiophen-2-yl)-3H-imidazo[4,5-b]pyridin-2-yl)-1H-pyrazolo[4,3-b]pyridin-5-yl)pyridin-3-yl)methanamine] | 108 | – |
| 250 | 100 | Cc1ccc(-c2ccnc3[nH]c(-c4n[nH]c5ccc(-c6cncc(N)c6)nc45)nc23)s1 [Compound 395, 5-(3-(7-(5-methylthiophen-2-yl)-3H-imidazo[4,5-b]pyridin-2-yl)-1H-pyrazolo[4,3-b]pyridin-5-yl)pyridin-3-amine] | 118 | – |
| 161 | 1670 | Cc1ccc(-c2ccnc3[nH]c(-c4n[nH]c5ccc(-c6cncc(NC(=O)C(C)C)c6)nc45)nc23)s1 [Compound 401, N-(5-(3-(7-(5-methylthiophen-2-yl)-3H-imidazo[4,5-b]pyridin-2-yl)-1H-pyrazolo[4,3-b]pyridin-5-yl)pyridin-3-yl)isobutyramide] | 66 | – |
| 8230 | – | COc1cncc(-c2ccc3[nH]nc(-c4nc5c(-c6cccc(F)c6)ccnc5[nH]4)c3n2)c1 [Compound 516, 3-(7-(3-fluorophenyl)-3H-imidazo[4,5-b]pyridin-2-yl)-5-(5-methoxypyridin-3-yl)-1H-pyrazolo[4,3-b]pyridine] | 47 | – |
| 1540 | 2 | Oc1cncc(-c2ccc3[nH]nc(-c4nc5c(-c6cccc(F)c6)ccnc5[nH]4)c3n2)c1 [Compound 517, 5-(3-(7-(3-fluorophenyl)-3H-imidazo[4,5-b]pyridin-2-yl)-1H-pyrazolo[4,3-b]pyridin-5-yl)pyridin-3-ol] | 59 | – |
| > 10000 | 100 | COc1cccc(-c2ccnc3[nH]c(-c4n[nH]c5ccc(-c6cccnc6)nc45)nc23)c1 [Compound 994, 3-(7-(3-methoxyphenyl)-3H-imidazo[4,5-b]pyridin-2-yl)-5-(pyridin-3-yl)-1H-pyrazolo[4,3-b]pyridine] | 50 | 50.2 |
| 5050 | 10 | CC(C)CC(=O)Nc1cncc(-c2ccc3[nH]nc(-c4nc5c(-c6ccc(Cl)s6)ccnc5[nH]4)c3n2)c1 [Compound 1037, N-(5-(3-(7-(5-chlorothiophen-2-yl)-3H-imidazo[4,5-b]pyridin-2-yl)-1H-pyrazolo [4,3-b]pyridin-5-yl)pyridin-3-yl)-3-methylbutanamide] | 67 | – |
